Data from the supplement of paper PMC10307832.

Assays:
Assay in all cases: relative viability (nuclei count vs DMSO), 5 days (fraction); higher = more cells survive
[1] = compound: CC(=O)c1c(C)c2cnc(Nc3ccc(N4CCNCC4)cn3)nc2n(C2CCCC2)c1=O [Palbociclib] + NC(=O)Nc1cc(-c2cccc(F)c2)sc1C(=O)N[C@H]1CCCNC1 [AZD7762] (partner 0.2 µM)
How it was run: (§1)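 One day after seeding in 1536-well plates, lung cancer cell lines were dosed by pin tool. Dosing was either single-drug or a fixed anchor-drug dose plus five library-drug doses (not always all listed) in √10 steps. After 5 days, nuclei were stained in one fix-and-stain step and counted on 4× images, and relative viability is the nuclei count of treated wells over that of vehicle wells, given as the median of duplicate plates.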

[2] = compound: CC(=O)c1c(C)c2cnc(Nc3ccc(N4CCNCC4)cn3)nc2n(C2CCCC2)c1=O [Palbociclib] + CC1(C)CCC(c2ccc(Cl)cc2)=C(CN2CCN(c3ccc(C(=O)NS(=O)(=O)c4ccc(N[C@H](CCN5CCOCC5)CSc5ccccc5)c(S(=O)(=O)C(F)(F)F)c4)cc3)CC2)C1 [Navitoclax] (partner 0.5 µM)
How it was run: as §1

[3] = compound: CC(=O)c1c(C)c2cnc(Nc3ccc(N4CCNCC4)cn3)nc2n(C2CCCC2)c1=O [Palbociclib] + N=C(N)NC(=N)NCCc1ccccc1 [Phenformin] (partner 250 µM)
How it was run: as §1

[4] = compound: CC(=O)c1c(C)c2cnc(Nc3ccc(N4CCNCC4)cn3)nc2n(C2CCCC2)c1=O [Palbociclib] + Cc1cc(Nc2cc(N3CCN(C)CC3)nc(Sc3ccc(NC(=O)C4CC4)cc3)n2)n[nH]1 [Tozasertib] (partner 0.1 µM)
How it was run: as §1

Cell Line	relative viability ([1]; first compound 0.01 µM)	relative viability ([1]; first compound 0.1 µM)	relative viability ([1]; first compound 0.3162 µM)	relative viability ([1]; first compound 1 µM)	relative viability ([2]; first compound 0.01 µM)	relative viability ([2]; first compound 0.03162 µM)	relative viability ([2]; first compound 0.1 µM)	relative viability ([2]; first compound 0.3162 µM)	relative viability ([2]; first compound 1 µM)	relative viability ([1]; first compound 0.03162 µM)	relative viability ([3]; first compound 0.01 µM)	relative viability ([3]; first compound 0.03162 µM)	relative viability ([3]; first compound 0.1 µM)	relative viability ([3]; first compound 0.3162 µM)	relative viability ([3]; first compound 1 µM)	relative viability ([4]; first compound 0.01 µM)	relative viability ([4]; first compound 0.03162 µM)	relative viability ([4]; first compound 0.1 µM)	relative viability ([4]; first compound 0.3162 µM)	relative viability ([4]; first compound 1 µM)
NCI-H1703	0.12	0.109	0.0999	0.14	1.18	0.756	0.753	0.394	0.28											
NCI-H522	1.01	0.934	0.843	0.814						0.453	0.623	0.592	0.586	0.644	1.19	0.604	0.517	0.573	0.469	0.539
A549					1.09	0.904	0.667	0.515	0.335		0.205	0.0665	0.11	0.129	0.096					
LCLC-103H	0.731	0.716	0.708	0.539						0.55	0.33	0.28	0.318	0.248	0.223	0.483	0.385	0.559	0.423	0.357
NCI-H2228					0.99	1.01	0.729	0.856	0.827		0.322	0.287	0.293	0.258	0.307	0.247	0.235	0.247	0.261	0.23
NCI-H1650					1.41	1.07	0.948	1.03	0.673		0.45	0.251	0.289	0.348	0.233	0.48	0.317	0.44	0.337	0.338
NCI-H650	0.949	0.978	0.921	0.686							0.447	0.371	0.403	0.352	0.316	0.784	0.378	0.639	0.588	0.576
SK-MES-1					1.36	1.22	0.821	0.745	0.477		0.661	0.573	0.455	0.376	0.18	0.858	0.76	0.595	0.502	0.29
IA-LM					0.589	0.43	0.234	0.206	0.119											
NCI-H520					1.08	0.719	0.745	0.785	0.481		0.5	0.321	0.348	0.407	0.227	0.445	0.424	0.238	0.329	0.249
COR-L23					0.977	0.759	0.681	0.544	0.477		0.438	0.37	0.304	0.345	0.263	0.197	0.146	0.16	0.157	0.124
NCI-H2023					1	0.897	0.897	0.77	0.48		0.405	0.381	0.321	0.319	0.218	0.377	0.31	0.314	0.297	0.292
